Measured values taken from patent US20060069132A1, “Azolecarboxamide herbicides” (priority 2004, published 2006).

Key:
[1] = system: redroot pigweed; assay: Test A pre-/postemergence herbicide test; assay type: in vivo, Amaranthus retroflexus
How it was run: (§1)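 Visual injury rating on a 0–100 scale (0 no effect, 100 complete control) versus untreated controls, about ten days after treatment in greenhouse. Pre: directed soil spray onto seeded sandy loam. Post: spray to runoff on plants 2–10 cm tall at one- to two-leaf stage.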

[2] = system: rice; assay: Test B pre-/postemergence herbicide test; assay type: in vivo, Oryza sativa; conditions: for Rice plant response rating (0 to 100 scale) / Plant response rating, Rice: preemergence
How it was run: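 Greenhouse pot assay with simultaneous preemergence (treated seed) and postemergence (2–18 cm seedlings) applications of surfactant-containing, non-phytotoxic solvent formulations. Response scored visually 13–15 days later on a 0–100 scale, 100 meaning complete control.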

[3] = system: barnyardgrass; assay: Test A pre-/postemergence herbicide test; assay type: in vivo, Echinochloa crus-galli
How it was run: as §1

[4] = Postemergence, 500 g ai/ha, 0 to 100 scale, 0 no effect, 100 complete control
[5] = Postemergence, 2000 g ai/ha, 0 to 100 scale, 0 no effect, 100 complete control
[6] = Preemergence, 2000 g ai/ha, visual rating, 0 to 100 scale (0 no effect, 100 complete control)
[7] = preemergence, 500 g ai/ha, visual injury, 0 to 100 scale (0 no effect, 100 complete control)
[8] = 125 g ai/ha, 0 = no effect, 100 = complete control
[9] = 500 g ai/ha, visual rating 0-100, 0 no effect, 100 complete control
[10] = 500 g ai/ha, visual rating, 0 = no effect, 100 = complete control
[11] = Postemergence, 125 g ai/ha, 0 to 100 scale, 0 no effect, 100 complete control
[12] = Preemergence, 500 g ai/ha, visual rating, 0 to 100 scale (0 no effect, 100 complete control)
[13] = preemergence, 125 g ai/ha, visual injury, 0 to 100 scale (0 no effect, 100 complete control)
[14] = 125 g ai/ha, 0 to 100 scale, 0 is no effect, 100 is complete control

CCc1nc(C(C)(C)C)sc1C(=O)Nc1cccc(C(=O)NCCF)c1 [Compound 209]
Pigweed plant response rating [1, 4]: 40
Plant response rating, Pigweed [1, 5]: 50
Pigweed plant response rating [1, 6]: 100
Pigweed plant response rating [1, 7]: 75
Rice plant response rating (0 to 100 scale) [2, 8]: 30
Plant response rating, Rice [2, 9]: 70
Barnyardgrass plant response rating [3, 4]: 30
Plant response rating, Barnyardgrass [3, 5]: 70
Barnyardgrass plant response rating [3, 6]: 80
Barnyardgrass plant response rating [3, 7]: 60

CCn1nc(C(C)(C)C)cc1C(=O)Nc1cncc(C(=O)N2CC=CC2)n1 [Compound 290]
Pigweed plant response rating [1, 4]: 30
Plant response rating, Pigweed [1, 5]: 60
Pigweed plant response rating [1, 6]: 95
Pigweed plant response rating [1, 7]: 10
Rice plant response rating (0 to 100 scale) [2, 8]: 0
Plant response rating, Rice [2, 10]: 80
Barnyardgrass plant response rating [3, 4]: 55
Plant response rating, Barnyardgrass [3, 5]: 70
Barnyardgrass plant response rating [3, 6]: 90
Barnyardgrass plant response rating [3, 7]: 40

CCc1nc(C(C)(C)C)sc1C(=O)Nc1cccc(C(=O)NC(C)(C)C)n1 [Compound 216]
Pigweed plant response rating [1, 4]: 30
Plant response rating, Pigweed [1, 5]: 55
Pigweed plant response rating [1, 6]: 70
Pigweed plant response rating [1, 7]: 0
Rice plant response rating (0 to 100 scale) [2, 8]: 0
Plant response rating, Rice [2, 10]: 70
Barnyardgrass plant response rating [3, 4]: 0
Plant response rating, Barnyardgrass [3, 5]: 15
Barnyardgrass plant response rating [3, 6]: 35
Barnyardgrass plant response rating [3, 7]: 15

CCn1nc(C(C)(C)C)cc1C(=O)Nc1cccc(C(=O)NC(C)C)c1 [Compound 51]
Pigweed plant response rating [1, 11]: 50
Plant response rating, Pigweed [1, 4]: 85
Pigweed plant response rating [1, 12]: 100
Pigweed plant response rating [1, 13]: 100
Rice plant response rating ([2]; Preemergence, 500 g ai/ha, scale 0 to 100): 50
Plant response rating, Rice [2, 14]: 0
Barnyardgrass plant response rating [3, 11]: 50
Plant response rating, Barnyardgrass [3, 4]: 75
Barnyardgrass plant response rating [3, 12]: 85
Barnyardgrass plant response rating [3, 13]: 60

CCOc1cccc(NC(=O)c2cc(C(C)(C)C)nn2CC)c1 [Compound 136]
Pigweed plant response rating [1, 4]: 65
Plant response rating, Pigweed [1, 5]: 85
Pigweed plant response rating [1, 6]: 80
Pigweed plant response rating [1, 7]: 70
Plant response rating, Rice [2, 9]: 50
Barnyardgrass plant response rating [3, 4]: 55
Plant response rating, Barnyardgrass [3, 5]: 60
Barnyardgrass plant response rating [3, 12]: 65
Barnyardgrass plant response rating [3, 6]: 85

CCn1nc(C(C)(C)C)cc1C(=O)Nc1cccc(C(C)=O)c1 [Compound 122]
Pigweed plant response rating [1, 4]: 60
Plant response rating, Pigweed [1, 5]: 100
Pigweed plant response rating [1, 6]: 90
Pigweed plant response rating [1, 7]: 85
Plant response rating, Rice [2, 14]: 20
Barnyardgrass plant response rating [3, 4]: 75
Plant response rating, Barnyardgrass [3, 5]: 85
Barnyardgrass plant response rating [3, 12]: 90
Barnyardgrass plant response rating [3, 6]: 95

CCn1nc(C(C)(C)C)cc1C(=O)Nc1nc(C(=O)N2CC=CC2)ccc1F [Compound 281]
Pigweed plant response rating [1, 4]: 70
Plant response rating, Pigweed [1, 5]: 70
Pigweed plant response rating [1, 6]: 95
Pigweed plant response rating [1, 7]: 90
Rice plant response rating (0 to 100 scale) [2, 8]: 20
Plant response rating, Rice [2, 10]: 60
Barnyardgrass plant response rating [3, 4]: 30
Plant response rating, Barnyardgrass [3, 5]: 65
Barnyardgrass plant response rating [3, 6]: 75
Barnyardgrass plant response rating [3, 7]: 60
